According to a melting point compilation (Tetko et al.; mined from patent text by program, amines drawn as free bases though some values may be those of a salt):

melting point [°C] | SMILES
159 to 161 | NC(=O)C1CCc2c(C(=O)c3ccc(Cl)cc3)cccc21 (configuration not stated)
102 | CCOCCn1c(CN2CCN(CC(O)COc3ccccc3)CC2)nc2cccnc21 (configuration not stated)
> 260 | Clc1ccc2nc(-c3ccccc3)cc(CCC3CCCNC3)c2c1 (configuration not stated)
147 to 150 | O=C(NC[C@H]1CN(c2ccc3c(c2)CCCc2cn[nH]c2-3)C(=O)O1)C(F)F
136 to 139 | C=CCOc1ccc2c(C)cc(=O)oc2c1C(=O)C=Cc1ccccc1
166 | Nc1ccc2ccc(Oc3cccc(Cl)c3)nc2n1
216 | CC1(C(F)(F)F)OC(=O)Nc2ccc(Cl)cc21 (configuration not stated)
222 to 223 | Cn1nc(-c2cc3nccnc3[nH]2)cc1-c1ccccc1
181 | O=C(NC1CCC(OCc2ccccc2)CC1)NC12CC3CC(CC(C3)C1)C2 (configuration not stated)
54 to 55 | CC(C)(C)OC(=O)NCCCC(=O)NCCC(=O)OCc1ccccc1
172 to 174 | CC(CO)(Oc1ccc(C(=O)c2ccc(Cl)cc2)cc1)C(=O)O (configuration not stated)
200 to 202 | Cc1ccccc1[C@H](O)CCc1c(C(=O)N(C)C)cc2c(nc(C)n2C)c1O
89 to 91 | CC1(C)OC(=O)C(Br)(CCn2cccc2C(=O)c2ccccc2)C(=O)O1
75 to 76 | Cc1ccc2c(c1)SC(c1ccc(OCCCCBr)cc1)C(=O)N2C (configuration not stated)
54 to 57 | COC(=O)[C@H](Cc1c[nH]c2ccccc12)NC(=O)CCC(=O)[C@H](Cc1ccccc1)NC(=O)OC(C)(C)C
87 | Cc1cc(C)nc(NC(=O)Cc2ccc(Br)s2)c1
153 to 162 | O=C(CBr)c1ccc(-c2ccc([N+](=O)[O-])cc2)o1
164 to 165 | COc1cc2sc(C=O)cc2c(Cl)c1OC
62 to 76 | COc1cc(C(C)C)c2c(c1)S(=O)(=O)N(COc1cc(-c3ccccc3)nn1-c1ccccc1)C2=O
248 to 250 | CCNC(=O)Nc1nc2cc(-c3cccnc3)cc(N3CCC(N(C)C)C3)n2n1 (configuration not stated)

melting point [°C] | SMILES
89 to 90 | CC(C)c1nn(-c2ccc(C(F)(F)F)cn2)cc1C=O
171 to 175 | CC1=NC(NC(=O)Nc2cccc(C)c2)C(=O)N(CC(=O)C2CCCCCC2)c2c(C)cccc21 (configuration not stated)
100 | CC(=O)Oc1ccc(-c2ccc(C(C)=O)cc2)cc1Br
90 | CCOCCOc1cc(N2C(=O)C3=C(CCCC3)C2=O)c(F)cc1C#N
124 to 126 | CC(=O)c1ccc(CCNS(=O)(=O)c2ccc(C)cc2)cc1
213 to 215 | Oc1ccc(O)c2c1CCCC2
226 | COc1ccc(C(=O)Nc2cccnc2)c2c1oc1ccccc12
153 to 154 | CC(=O)Nc1ccc(Cc2nc3c(c4c2[nH]c2ccccc24)C(=O)CC(C)(C)C3)cc1
75.5 to 77 | CCOCCn1c(CCl)nc2ccccc21
174 to 178 | CCOC(=O)c1sc(N)nc1C(C)C
83 to 84 | CC1CN(c2ccccc2)N=C1N (configuration not stated)
65 to 67 | CCCc1c(C(=O)N(CC)CC)ccc(OC)c1OC
140 to 141 | Oc1ccc(Br)cc1C12CC3CC(CC(C3)C1)C2
118 to 123 | CCN(CC)CCOc1ccc(Nc2nc(N)c(C(=O)c3cccc(OC)c3)s2)cc1
115 to 117 | CCOC(=O)C=Cc1ccc(F)c([N+](=O)[O-])c1
154 to 172 | O=C(O)[C@@H]1C[C@H](OS(=O)(=O)C2CCCCC2)CN1C(=O)c1ccccc1
126 to 127 | COc1ccc2cc(C(C)=CC(C)=O)cc(F)c2c1
224 to 225 | Brc1ccc2c(c1)[nH]c1cc(Br)ccc12
144 to 148 | O=C(O)C=CC(=O)NCCCCCCCCCCCCCCCCCC(=O)O
84 to 85 | Cc1ccc(COC(C)CN(O)C(N)=O)s1 (configuration not stated)

melting point [°C] | SMILES
236 to 238 | O=C1CCC(n2cnc(-c3ccc(F)cc3)c2-c2ccnc(O)n2)CC1
178 | COc1ccc2cccnc2c1[N+](=O)[O-]
232 | CCCCN(C(=O)C(=O)O)c1cccc(NC(=O)C(=O)O)c1
95 to 97 | CCN(CC)CCc1ccc2[nH]c(C)c(C(=O)O[C@@H](C)c3ccccc3)c2c1
124 to 127 | CCOP(=O)(OCC)C(F)(F)c1ccc(CN(Cc2ccc(C(F)(F)P(=O)(OCC)OCC)cc2)C(=O)NCc2ccccc2)cc1
188 | O=C1C(=O)N2CCOc3cccc1c32
215 to 217 | CC(C)Oc1cc(-n2c(=O)[nH]c3c(c2=O)CCC3)c(F)cc1Cl
141 to 142 | COc1cc(CC(C)NC(=O)c2ccccc2)cc2c1OC(C)(C)C2 (configuration not stated)
137 to 140 | CC(C)(C)N(NC(=O)c1ccccn1)C(=O)c1ccccc1[N+](=O)[O-]
251 | CCOc1cc(-c2cc(C(F)(F)F)n3ncc(-c4ccncc4)c3n2)ccc1C(F)(F)F
117 to 118 | C=CCC1=C(O)C(C)=CC(C)(OC(C)=O)C1C (configuration not stated)
201 to 206 | N#Cc1cc([N+](=O)[O-])[nH]c1-c1ccc(Cl)cc1
117 to 119 | Oc1ccc(-c2cccc3sc4ccccc4c23)cc1
194 to 195 | Cc1c(Br)sc(N2C(=O)c3ccccc3C2=O)c1C(=O)c1ccc(Cl)cc1
146 to 148 | Cn1c(C(F)(F)F)cc(=O)n(-c2nc(Cl)c(C#N)cc2F)c1=O
201 to 202 | OCc1cc(O)cc(Nc2c3ccccc3nc3ccccc23)c1
106 to 108 | CS(=O)c1nc(-c2cc(C(C)(C)C)c(O)c(C(C)(C)C)c2)c[nH]1 (configuration not stated)
138 | CCOC(=O)c1cccc(NC(=O)Oc2ccccc2)c1
243 to 245 | Brc1cc(-c2c3ccccc3c(Br)c3sc4ccccc4c23)cc(Br)c1OCc1nnn[nH]1
196 | CS(=O)(=O)NCc1cccc(-c2csc(N=C(N)N)n2)n1

The next lines start with the compound.

SMILES | melting point [°C]
COc1cc2c(cc1OC)C(c1ccco1)=NN=C(C)C2 | 155 to 157
CC(C)(C)OC(=O)Nc1cc(N2CCC(O)CC2)c(I)cc1[N+](=O)[O-] | 58 to 60
Cc1ccc(-c2cncc(/C=C/C(=O)O)c2)cc1 | 208 to 211
CCc1ncc2n1N=C(c1ccc([N+](=O)[O-])cc1)c1cc3c(cc1C2)OCO3 | 243 to 245
CS(=O)(=O)c1cccc(Cc2cc3cccc(-c4cccc(C(=O)NCC(N)=O)c4)c3s2)c1 | 189 to 193
CC1CC(=O)c2c(C(=O)O)c[nH]c2C1 (configuration not stated) | 210 to 211
OC1c2cc(OCc3ccc4ccccc4n3)ccc2OCCC1Oc1ccccc1 (configuration not stated) | 128 to 129
COc1cn(-c2ccc(I)cc2F)nc(-c2ccnn2-c2ccccc2)c1=O | 194 to 196
CCC(C)N(C)C(=O)c1nc(-c2ccccc2)c2ccccc2n1 (configuration not stated) | 128
CN(C)C=C(C#N)C(=O)Nc1ccccc1Br | 140 to 141
CN(c1cccc2cc(C3=NCC(CCO)S3)[nH]c12)S(=O)(=O)c1cccs1 (configuration not stated) | 168 to 169
O=C(Nc1c(Cl)cc(-c2n[nH]c(=O)o2)c2c1OCCO2)OCc1ccccc1 | 230
CCC(CC)n1cc(C#N)nc(N2CCc3cc(Cl)cc(Cl)c32)c1=O | 197 to 199
Cc1ccc(-c2ccccc2)cc1Cn1c(C(F)F)nn(C)c1=O | 72.7
COc1ccc(OC(=O)N2CCCC2=O)cc1 | 133 to 134
CC(=O)NC1CCN(CCCCl)CC1 | 74 to 77
O=C1c2ccccc2C(=O)c2c1c(O)c1ccccc1c2O | 214 to 216
COc1ccc(/C=C2\C3=C(CCCC3)CCN2C(C)=O)cc1 | 74.5 to 76
CC(C)(C)OC(=O)N[C@@H](Cc1ccc(-c2ccccc2)cc1)C(=O)O | 122 to 123
CCN(CC)C(=O)C1=NN(c2ccccc2)C(C(N)=O)=NN1c1ccccc1 | 239 to 240
CN(C)CCNc1ccc(-c2n[nH]c3ncccc23)cc1 | 165 to 167

SMILES | melting point [°C]
O=CC=C(c1ccccc1)c1ccccc1 | 45 to 46.5
COc1cccc2cc3c(c(-c4ccc5c(c4)OCO5)c12)C(=O)NC3=O | 291 to 293
O=C(O)COc1cc(Cl)ccc1C(=O)NCc1cccc(C(F)(F)F)c1 | 179 to 181
O=C(c1ccccc1)c1cc[nH]c1 | 96 to 97
CCOC(=O)C1=C(C)NC(=O)N(C(=O)OCC)C1c1ccccc1[N+](=O)[O-] (configuration not stated) | 150 to 152
O=C(CF)NCc1ccc2ccn(C3CCN(CCc4ccc(F)cc4)CC3)c2c1 | 106 to 108
CN1CCCCC1COC(=O)c1cccc(NC(=O)C(CS)Cc2ccccc2)c1 (configuration not stated) | 68 to 69
OCc1cc2cc(-c3ccc(OC(F)(F)F)cc3)ccc2n1Cc1ccccc1 | 108 to 109
COc1cc(OCCO)c([N+](=O)[O-])cc1[N+](=O)[O-] | 137 to 140
Clc1cccc2c1CNC(=Nc1ccccc1)CS2 | 150 to 152
CCc1c(C(=O)C(N)=O)c2c(OCC(=O)N(C)OC)cccc2n1Cc1ccccc1 | 168 to 170
CCOC(=O)COc1cccc2c1CCc1sc(SCC(c3ccccc3)c3ccccc3)nc1-2 | 92 to 93
CN1C(=O)[C@H](NC(=O)CCc2ccc(Cl)cc2)N=C(c2ccccc2)c2ccccc21 | 203 to 205
Cc1ccc(-n2c(-c3ccc(Br)cc3)nc3c4ccccc4c4ccccc4c32)cc1 | 236
N#Cc1cnc2cc(-c3ccc(CO)cc3)sc2c1Nc1ccc(Oc2ccccc2)cc1 | 225 to 228
CC1=CC(C)(C)c2ccc(Oc3ccc([N+](=O)[O-])cc3)cc2O1 | 80
COc1ccc(-c2nc3cc(Cl)cc(C#CCN(OC(=O)OC(C)(C)C)C(=O)OC(C)(C)C)c3o2)cc1OC1CCCC1 | 144 to 146
C[C@H](Cn1cccn1)NC(=O)c1c[nH]c2ncc(-c3nn(C)c4cc(F)ccc34)nc12 | 252 to 253
Oc1ccc2c(c1)CCCC2Cc1c[nH]cn1 (configuration not stated) | 200 to 205
CC(C)CC(NC(=O)C(Cc1c[nH]cn1)NC(=O)C(CC(=O)c1ccccc1)Cc1cccc2ccccc12)C(O)C(=O)OC(C)C (configuration not stated) | 108 to 118
C=CCOc1ccc(C(=O)C=Cc2cc(OC)c(C)c(OC)c2)cc1 | 143 to 144
